Measurements published in US20230053540A1, “TREATMENT OF LIVER INJURY” (Massachusetts Institute of Technology, priority 2019, published 2023).

Tested on: hepatocytes
Assay: Seq-Well scRNA-Seq of hepatocytes after APAP overdose (signature scores, DEG vs untreated)
Format: in vivo, mouse
Settings: cluster A6 (APAP 6 hr)

CC(=O)Nc1ccc(O)cc1 [APAP, acetaminophen]
Iigp1 pct.1: 0.78
Il1b avg_logFC: 0.7365
Il1b pct.1: 0.236
Il1r1 avg_logFC: 0.845
Il1r1 pct.1: 0.683
Insig2 avg_logFC: 0.6834
Insig2 pct.1: 0.854
Iqgap1 avg_logFC: 0.4345
Iqgap1 pct.1: 0.162
Itgb2 avg_logFC: 0.2628
Itgb2 pct.1: 0.105
Itih2 avg_logFC: 0.3109
Itih2 pct.1: 0.893
Jak1 avg_logFC: 0.4696
Jak1 pct.1: 0.554
Jmjd1c avg_logFC: 0.5262
Jmjd1c pct.1: 0.47
Klf6 avg_logFC: 0.6123
Klf6 pct.1: 0.382
Krt8 avg_logFC: 1.204
Krt8 pct.1: 0.826
Krt18 avg_logFC: 1.118
Krt18 pct.1: 0.864
Laptm5 avg_logFC: 0.3169
Laptm5 pct.1: 0.124
Lars2 avg_logFC: 0.5887
Lars2 pct.1: 1
Lgmn avg_logFC: 0.4368
Lgmn pct.1: 0.246
Lmo4 avg_logFC: 0.2923
Lmo4 pct.1: 0.308
Lpin2 avg_logFC: 0.5227
Lpin2 pct.1: 0.745
Lrrc58 avg_logFC: 0.9243
Lrrc58 pct.1: 0.711
Lyst avg_logFC: 0.3767
Lyst pct.1: 0.31
Lyz2 avg_logFC: 0.6523
Lyz2 pct.1: 0.234
Maff avg_logFC: 0.3314
Maff pct.1: 0.224
Malat1 avg_logFC: 1.108
Malat1 pct.1: 0.871
Map2k3 avg_logFC: 0.3952
Map2k3 pct.1: 0.427
Mat1a avg_logFC: 0.3317
Mat1a pct.1: 0.986
Mat2a avg_logFC: 0.4693
Mat2a pct.1: 0.487
Mdn1 avg_logFC: 0.2931
Mdn1 pct.1: 0.251
Mfsd2a avg_logFC: 0.4232
Mfsd2a pct.1: 0.465
Mmp8 avg_logFC: 0.3585
Mmp8 pct.1: 0.136
Mmp14 avg_logFC: 0.2594
Mmp14 pct.1: 0.253
Mrap avg_logFC: 0.8261
Mrap pct.1: 0.606
Mrc1 avg_logFC: 0.3063
Mrc1 pct.1: 0.131
Msn avg_logFC: 0.251
Msn pct.1: 0.105
Mt1 avg_logFC: 0.9315
Mt1 pct.1: 0.981
Mt2 avg_logFC: 0.6647
Mt2 pct.1: 0.938
Mthfd2 avg_logFC: 0.26
Mthfd2 pct.1: 0.205
Myh9 avg_logFC: 0.8661
Myh9 pct.1: 0.718
Myl12a avg_logFC: 0.3937
Myl12a pct.1: 0.461
Myo1e avg_logFC: 0.4916
Myo1e pct.1: 0.475
Ncl avg_logFC: 0.4292
Ncl pct.1: 0.69
Neat1 avg_logFC: 0.6234
Neat1 pct.1: 0.31
Nid1 avg_logFC: 0.3315
Nid1 pct.1: 0.229
Nolc1 avg_logFC: 0.4084
Nolc1 pct.1: 0.363
Nop56 avg_logFC: 0.2507
Nop56 pct.1: 0.282
Nop58 avg_logFC: 0.5859
Nop58 pct.1: 0.492
Phc2 avg_logFC: 0.3092
Phc2 pct.1: 0.284
Picalm avg_logFC: 0.6425
Picalm pct.1: 0.647
Pigr avg_logFC: 0.2627
Pigr pct.1: 0.947
Pla2g7 avg_logFC: 0.2737
Pla2g7 pct.1: 0.119
Plek avg_logFC: 0.3031
Plek pct.1: 0.11
Plin2 avg_logFC: 1.276
Plin2 pct.1: 0.943
Plscr1 avg_logFC: 0.4343
Plscr1 pct.1: 0.329
Ppan avg_logFC: 0.2655
Ppan pct.1: 0.255
Ppl avg_logFC: 0.8287
Ppl pct.1: 0.47
Psat1 avg_logFC: 0.3001
Psat1 pct.1: 0.229
Ptprc avg_logFC: 0.4072
Ptprc pct.1: 0.153
Rad54l2 avg_logFC: 0.3366
Rad54l2 pct.1: 0.325
Ranbp2 avg_logFC: 0.4808
Ranbp2 pct.1: 0.566
Rcan1 avg_logFC: 0.5727
Rcan1 pct.1: 0.425
Rell1 avg_logFC: 0.577
Rell1 pct.1: 0.375
Retnlg avg_logFC: 0.3746
Retnlg pct.1: 0.129
Retsat avg_logFC: 0.4801
Retsat pct.1: 0.845
Rgs2 avg_logFC: 0.3802
Rgs2 pct.1: 0.138
Rnf144a avg_logFC: 0.3119
Rnf144a pct.1: 0.177
Rock2 avg_logFC: 0.5525
Rock2 pct.1: 0.425
Rora avg_logFC: 0.5514
Rora pct.1: 0.549
S100a8 avg_logFC: 1.116
S100a8 pct.1: 0.353
S100a9 avg_logFC: 1.336
S100a9 pct.1: 0.399
Sat1 avg_logFC: 0.6622
Sat1 pct.1: 0.47
Sdad1 avg_logFC: 0.2844
Sdad1 pct.1: 0.289
Sdc3 avg_logFC: 0.318
Sdc3 pct.1: 0.103
Sdc4 avg_logFC: 0.4415
Sdc4 pct.1: 0.909
Serpina3m avg_logFC: 0.6067
Serpina3m pct.1: 0.85
Slc16a6 avg_logFC: 0.864
Slc16a6 pct.1: 0.47
Slc39a14 avg_logFC: 0.6721
Slc39a14 pct.1: 0.678
Son avg_logFC: 0.4342
Son pct.1: 0.601
Spred1 avg_logFC: 0.3351
Spred1 pct.1: 0.308
Sqstm1 avg_logFC: 0.6817
Sqstm1 pct.1: 0.859
Srgn avg_logFC: 0.926
Srgn pct.1: 0.284
Srxn1 avg_logFC: 1.874
Srxn1 pct.1: 0.821
St3gal1 avg_logFC: 0.4344
St3gal1 pct.1: 0.473
Stat3 avg_logFC: 0.4846
Stat3 pct.1: 0.604
Stk17b avg_logFC: 0.2825
Stk17b pct.1: 0.126
Stk40 avg_logFC: 0.4875
Stk40 pct.1: 0.382
Tars avg_logFC: 0.4768
Tars pct.1: 0.666
Tatdn2 avg_logFC: 0.309
Tatdn2 pct.1: 0.334
Tbc1d15 avg_logFC: 0.42
Tbc1d15 pct.1: 0.461
Tcerg1 avg_logFC: 0.3358
Tcerg1 pct.1: 0.305
Tiparp avg_logFC: 0.427
Tiparp pct.1: 0.346
Tjp2 avg_logFC: 0.403
Tjp2 pct.1: 0.332
Tmem87b avg_logFC: 0.3486
Tmem87b pct.1: 0.351
Tmsb4x avg_logFC: 0.7051
Tmsb4x pct.1: 0.332
Tnfrsf1a avg_logFC: 0.4533
Tnfrsf1a pct.1: 0.508
Tnfrsf12a avg_logFC: 1.081
Tnfrsf12a pct.1: 0.623
Tra2a avg_logFC: 0.6917
Tra2a pct.1: 0.337
Trp53inp1 avg_logFC: 0.8389
Trp53inp1 pct.1: 0.637
Tsc22d2 avg_logFC: 0.3382
Tsc22d2 pct.1: 0.353
Tsku avg_logFC: 0.3206
Tsku pct.1: 0.327
Tsr1 avg_logFC: 0.314
Tsr1 pct.1: 0.341
Tubb2a avg_logFC: 0.7838
Tubb2a pct.1: 0.618
Tubb6 avg_logFC: 0.533
Tubb6 pct.1: 0.368
Txnrd1 pct.1: 0.838
Tyrobp avg_logFC: 0.4431
Tyrobp pct.1: 0.189
